The record followed here is patent publication US9188584B2, “Capture agents and related compositions, methods and systems” (CALIFORNIA INSTITUTE OF TECHNOLOGY, priority 2008, dated 2015).

Where “and” joins values, the source holds several entries; their conditions need not be identical. Identical values can stand only once.

Broadly, the Kd is the equilibrium constant for the complex coming apart.

The target of one test is T1, bCAII (Bos taurus, UniProt P00921).
T1 construct: The bCAII (C2522), from bovine erythrocytes, lyophilized powder; purchased Sigma-Aldrich C2522; host or cells: bovine erythrocytes
The test can be described thus: KD determination by surface plasmon resonance (SPR), immobilized bCAII. Details: species or system bovine. Conditions: binding affinity to bCAII by SPR, 1:1 binding fit. The text has this:
KD determination by surface plasmon resonance (SPR).
(In general: Surface plasmon resonance follows binding to a sensor surface in real time, without labels.)

Another test addresses hCAII (Homo sapiens, UniProt P00918). The test can be described thus: biochemical.
The next test has as its system b(h)CAII. The test can be described thus: Dot blot selectivity/sensitivity assay in porcine serum. Conditions: 0.1% serum. The test is classed as binding. As for the experimental part:
Dot blots are a common method for detecting proteins. […] For a dot blot, the solution containing the protein of interest is simply dotted onto an absorbent membrane material (typically nitrocellulose). The capture agent (typically an antibody) is labeled with biotin molecule, and applied to the same spot. The spot is rinsed, and then horseradish peroxidase (HRP)-labeled streptavidin is added, binding to the biotin that is bound to the protein. Optical methods are typically utilized to detect this binding. For these tests, Biotin-PEG-NovaTag resin (0.48 mmol/g; Novabiochem) was utilized for bulk synthesis of C-terminal biotin-labeled multi-ligands. After resin cleavage, the crude biotinylated multi-ligand was precipitated with ether and then purified to >98% by C18 reversed phase HPLC. For a dot blot assay, the procedure was as follows: b(h)CAII antigens were prepared as 1 mg/mL stocks in PBS (pH 7.4). A dilution series of antigen was applied to a nitrocellulose membrane, typically ranging from 2 μg to 0.5 ng per spot. […] The membrane was then washed with TBS. […] After washing with TBS for 1 h, 1:3000 Streptavidin-HRP (Abcam, Cambridge, Mass.) prepared in 0.5% milk/TBS was added to the membrane and incubated for 1 h. […]

T1 sequence (P00921 whole entry): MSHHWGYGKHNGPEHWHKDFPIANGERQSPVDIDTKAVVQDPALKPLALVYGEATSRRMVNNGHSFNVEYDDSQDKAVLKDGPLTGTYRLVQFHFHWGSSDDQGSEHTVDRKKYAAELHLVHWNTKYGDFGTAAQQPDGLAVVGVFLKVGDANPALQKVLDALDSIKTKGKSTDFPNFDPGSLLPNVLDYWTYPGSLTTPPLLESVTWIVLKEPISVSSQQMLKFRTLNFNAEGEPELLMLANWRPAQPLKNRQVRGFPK
Procedure for hCAII: KD determination by surface plasmon resonance (SPR). […] One flow cell of the biosensor surface (BIACORE CM5) was immobilized with bCAII following standard procedures using 0.25 mg/mL bCAII prepared in 10 mM sodium acetate (pH 5.0) buffer and a 1:1 solution of 0.1 mM NHS and 0.4 mM EDC (Papalia, G. A. et al., 2006). Similarly, a second flow cell was immobilized with hCAII following standard procedures using 0.25 mg/mL hCAII prepared in 10 mM sodium acetate (pH 5.5) buffer (Svedhem, S. et al., 2001). Immobilization levels of ˜4000 RU were achieved using a flow rate of 100 μL/min over 420 s. The remaining two flow cells were left underivatized, to correct for changes in bulk refractive index and to assess nonspecific binding. The running buffer was prepared to contain 10 mM HEPES+150 mM NaCl+0.05% Tween20+3% DMSO, and this buffer was used for all experiments. Prior to the peptide analyte experiment, 8 buffer-alone cycles were completed to establish baseline stabilization. Biligand samples were injected in a concentration series (5 μM to 2 nM) at 100 μL/min flow rate for 120-180 s across the four flow cells. Following background subtraction, the analyte response data was fitted for 1:1 binding affinity using the BiaEvaluation software. […]

As for `CC[C@@H](C)[C@@H](NC(=O)[C@@H](CC(C)C)NC(=O)[C@@H](CC(N)=O)NC(=O)C(N)CCCCn1cc(C[C@@H](NC(C)=O)C(=O)N[C@H](CCCCN)C(=O)N[C@H](Cc2c[nH]c3ccccc23)C(=O)N[C@H](CC(C)C)C(=O)N[C@H](Cc2c[nH]c3ccccc23)C(=O)NCC(=O)N[C@H](CC(C)C)C(=O)N[C@H](Cc2cn(CCCCC(NC(C)=O)C(=O)N[C@H](CCCCN)C(=O)N[C@H](Cc3ccccc3)C(=O)N[C@H](Cc3c[nH]c4ccccc34)C(=O)N[C@H](CC(C)C)C(=O)N[C@H](CCCCN)C(=O)N[C@H](CC(C)C)C(=O)O)nn2)C(=O)N2CCCCC2)nn1)C(=O)N[C@@H](C(=O)N[C@H](Cc1ccccc1)C(=O)N[C@H](CCCNC(=N)N)C(N)=O)C(C)C` (stereo partly drawn) [rfviln-Tz2-kwlwGl-Tz1-kfwlkl], the Kd on bCAII was 60 nM and 64 nM; on hCAII it was 45 nM.

Regarding (D-Pra)-kwlwGl-Tz1-kfwlkl, the “reduction of dot blot sensitivity relative to triligand” value with b(h)CAII is over 10 fold.
